From article PMC5218480 (PLoS ONE, 2017)

System: MV-4-11 cells
Assay: Gene expression microarray analysis (Affymetrix PrimeView) and GSEA
Format: cell-based, human
Parameters: RFU PODN (11730768_x_at) / Fold change /veh PODN (11730768_x_at) / RFU LINC00158 (11744669_a_at) / Fold change /veh LINC00158 (11744669_a_at) / RFU DUSP10 (11751237_a_at) / Fold change /veh DUSP10 (11751237_a_at) / RFU ID3 (11757404_x_at) / Fold change /veh ID3 (11757404_x_at) / RFU PLEKHG5 (11737974_s_at) / Fold change /veh PLEKHG5 (11737974_s_at) / RFU LRRC4B (11730491_at) / Fold change /veh LRRC4B (11730491_at) / RFU GIMAP4 (11747438_a_at) / Fold change /veh GIMAP4 (11747438_a_at) / RFU KRT8 (11758183_x_at) / Fold change /veh KRT8 (11758183_x_at) / RFU CNN1 (11734310_a_at) / Fold change /veh CNN1 (11734310_a_at) / RFU VPS37D (11726825_at) / Fold change /veh VPS37D (11726825_at) / RFU C10orf10 (11716522_x_at) / Fold change /veh C10orf10 (11716522_x_at) / RFU KIR2DL2 /// KIR2DL4 /// KIR2DL5A /// KIR2DL5B /// KIR2DS1 /// KIR2DS2 /// KIR2DS3 /// KIR2DS4 /// KIR3DL3 /// KIR3DL3 /// KIR3DS1 (11738374_at) / Fold change /veh KIR2DL2 /// KIR2DL4 /// KIR2DL5A /// KIR2DL5B /// KIR2DS1 /// KIR2DS2 /// KIR2DS3 /// KIR2DS4 /// KIR3DL3 /// KIR3DL3 /// KIR3DS1 (11738374_at) / RFU C1QL1 (11718748_at) / Fold change /veh C1QL1 (11718748_at) / RFU TMPRSS4 (11747572_a_at) / Fold change /veh TMPRSS4 (11747572_a_at) / RFU HAMP (11756126_x_at) / Fold change /veh HAMP (11756126_x_at) / RFU RNFT2 (11725882_a_at) / Fold change /veh RNFT2 (11725882_a_at) / RFU NR4A2 (11747474_a_at) / Fold change /veh NR4A2 (11747474_a_at) / RFU ABCC12 (11746883_a_at) / Fold change /veh ABCC12 (11746883_a_at) / RFU TMEM136 (11760407_x_at) / Fold change /veh TMEM136 (11760407_x_at) / RFU CLDN22 /// WWC2 (11732394_at) / Fold change /veh CLDN22 /// WWC2 (11732394_at) / RFU HLA-DPB1 (11760878_x_at) / Fold change /veh HLA-DPB1 (11760878_x_at) / RFU SPINT1 (11716480_a_at) / Fold change /veh SPINT1 (11716480_a_at) / RFU GAP43 (11754022_s_at) / Fold change /veh GAP43 (11754022_s_at) / RFU A4GNT (11735810_at) / Fold change /veh A4GNT (11735810_at) / RFU PRB3 (11715151_x_at) / Fold change /veh PRB3 (11715151_x_at) / RFU TUBB4B (11761932_at) / Fold change /veh TUBB4B (11761932_at) / RFU CAPN14 (11732068_a_at) / Fold change /veh CAPN14 (11732068_a_at) / RFU TMCC2 (11721928_a_at) / Fold change /veh TMCC2 (11721928_a_at) / RFU IRGQ (11745062_a_at) / Fold change /veh IRGQ (11745062_a_at) / RFU FAM174B (11720279_a_at) / Fold change /veh FAM174B (11720279_a_at) / RFU TMPRSS4 (11748680_a_at) / Fold change /veh TMPRSS4 (11748680_a_at) / RFU FAM212B (11763350_a_at) / Fold change /veh FAM212B (11763350_a_at) / RFU PLEKHG5 (11743358_a_at) / Fold change /veh PLEKHG5 (11743358_a_at) / RFU ZSCAN30 (11745921_a_at) / Fold change /veh ZSCAN30 (11745921_a_at) / RFU CMKLR1 (11741424_a_at) / Fold change /veh CMKLR1 (11741424_a_at) / RFU LOC101060620 /// MAPK8IP1 (11723275_at) / Fold change /veh LOC101060620 /// MAPK8IP1 (11723275_at) / RFU SPTSSB (11747773_x_at) / Fold change /veh SPTSSB (11747773_x_at) / RFU PRSS12 (11739890_at) / Fold change /veh PRSS12 (11739890_at) / RFU BIN1 (11741810_x_at) / Fold change /veh BIN1 (11741810_x_at) / RFU WNT11 (11732464_a_at) / Fold change /veh WNT11 (11732464_a_at) / RFU C10orf10 (11716521_a_at) / Fold change /veh C10orf10 (11716521_a_at) / RFU C5orf56 (11738089_at) / Fold change /veh C5orf56 (11738089_at) / RFU CYB561 (11721691_x_at) / Fold change /veh CYB561 (11721691_x_at) / RFU ANKRD19P (11752326_a_at) / Fold change /veh ANKRD19P (11752326_a_at) / RFU OR2T12 /// OR2T33 /// OR2T8 (11738714_s_at) / Fold change /veh OR2T12 /// OR2T33 /// OR2T8 (11738714_s_at) / RFU VCAN (11748164_a_at) / Fold change /veh VCAN (11748164_a_at) / RFU JSRP1 (11732532_at) / Fold change /veh JSRP1 (11732532_at) / RFU KRTAP10-11 (11738290_x_at) / Fold change /veh KRTAP10-11 (11738290_x_at) / RFU MYO3A (11730013_a_at) / Fold change /veh MYO3A (11730013_a_at) / RFU EBF3 (11725865_a_at) / Fold change /veh EBF3 (11725865_a_at) / RFU CAMK2N1 (11719241_x_at) / Fold change /veh CAMK2N1 (11719241_x_at) / RFU C5orf56 (11738088_a_at) / Fold change /veh C5orf56 (11738088_a_at) / RFU OLFML3 (11715873_a_at) / Fold change /veh OLFML3 (11715873_a_at) / RFU LOC100653217 /// NTM (11731650_a_at) / Fold change /veh LOC100653217 /// NTM (11731650_a_at) / RFU MAPK11 (11762145_a_at) / Fold change /veh MAPK11 (11762145_a_at) / RFU FIZ1 (11724087_x_at) / Fold change /veh FIZ1 (11724087_x_at) / RFU OASL (11726364_x_at) / Fold change /veh OASL (11726364_x_at) / RFU SOX15 (11748057_x_at) / Fold change /veh SOX15 (11748057_x_at) / RFU CD79A (11719716_a_at) / Fold change /veh CD79A (11719716_a_at) / RFU HIST1H1D (11736915_at) / Fold change /veh HIST1H1D (11736915_at) / RFU CASKIN2 (11723855_a_at) / Fold change /veh CASKIN2 (11723855_a_at) / RFU LOC730098 (11760151_x_at) / Fold change /veh LOC730098 (11760151_x_at) / RFU OR4N2 (11742367_at) / Fold change /veh OR4N2 (11742367_at) / RFU PRRT2 (11749266_a_at) / Fold change /veh PRRT2 (11749266_a_at) / RFU SNX32 (11753110_a_at) / Fold change /veh SNX32 (11753110_a_at) / RFU CDHR5 (11726645_a_at) / Fold change /veh CDHR5 (11726645_a_at) / RFU RCAN1 (11760418_a_at) / Fold change /veh RCAN1 (11760418_a_at) / RFU FAM167A (11723789_a_at) / Fold change /veh FAM167A (11723789_a_at) / RFU FAM26E (11764081_at) / Fold change /veh FAM26E (11764081_at) / RFU ISYNA1 (11749810_s_at) / Fold change /veh ISYNA1 (11749810_s_at) / RFU ACY1 (11761880_at) / Fold change /veh ACY1 (11761880_at) / RFU 11764098_at / Fold change /veh 11764098_at / RFU SAMD14 (11745864_x_at) / Fold change /veh SAMD14 (11745864_x_at) / RFU NPB (11741838_a_at) / Fold change /veh NPB (11741838_a_at) / RFU TMPRSS6 (11731388_a_at) / Fold change /veh TMPRSS6 (11731388_a_at) / RFU KRTAP10-2 (11738614_at) / Fold change /veh KRTAP10-2 (11738614_at) / RFU ARHGAP8 /// PRR5-ARHGAP8 (11727945_x_at) / Fold change /veh ARHGAP8 /// PRR5-ARHGAP8 (11727945_x_at) / RFU KRTAP5-7 /// NADSYN1 (11734609_at) / Fold change /veh KRTAP5-7 /// NADSYN1 (11734609_at) / RFU RASL12 (11751679_a_at) / Fold change /veh RASL12 (11751679_a_at) / RFU CDKN2B (11736163_a_at) / Fold change /veh CDKN2B (11736163_a_at) / RFU PRF1 (11729649_at) / Fold change /veh PRF1 (11729649_at) / RFU, ZNF638 /// ZNF638-IT1 / Fold change vs veh, ZNF638 /// ZNF638-IT1 / RFU, PANK3 / Fold change vs veh, PANK3 / RFU, SH3YL1 / Fold change vs veh, SH3YL1 / RFU, ZEB2 / Fold change vs veh, ZEB2 / RFU, NRIP1 / Fold change vs veh, NRIP1 / RFU, PTTG1IP / Fold change vs veh, PTTG1IP / RFU, CAPN2 / Fold change vs veh, CAPN2 / RFU, MED14 / Fold change vs veh, MED14 / RFU, SNORA58 / Fold change vs veh, SNORA58 / RFU, C1orf63 / Fold change vs veh, C1orf63 / RFU, LRRFIP1 / Fold change vs veh, LRRFIP1 / RFU, NDUFAF7 / Fold change vs veh, NDUFAF7 / RFU, SLC12A2 / Fold change vs veh, SLC12A2 / RFU, IBTK / Fold change vs veh, IBTK / RFU, ESF1 / Fold change vs veh, ESF1 / Fold change vs veh, TMEM50B / RFU, TAOK1 / Fold change vs veh, TAOK1 / RFU, ACBD3 / Fold change vs veh, ACBD3 / RFU, TMA16 / Fold change vs veh, TMA16 / RFU, RWDD3 / Fold change vs veh, RWDD3 / RFU, BCAT1 / Fold change vs veh, BCAT1 / RFU, EDEM3 / Fold change vs veh, EDEM3 / RFU, TMEM33 / Fold change vs veh, TMEM33 / RFU, WDR75 / Fold change vs veh, WDR75 / RFU, AHCTF1 / Fold change vs veh, AHCTF1 / RFU, TFRC / Fold change vs veh, TFRC / RFU, ZDHHC17 / Fold change vs veh, ZDHHC17 / RFU, NOM1 / Fold change vs veh, NOM1 / RFU, ARL8B / Fold change vs veh, ARL8B / RFU, ZBTB11 / Fold change vs veh, ZBTB11 / RFU, TAMM41 / Fold change vs veh, TAMM41 / RFU, KIAA1704 /// LOC100996395 / Fold change vs veh, KIAA1704 /// LOC100996395 / RFU, ING1 / Fold change vs veh, ING1 / RFU, TRMT61B / Fold change vs veh, TRMT61B / RFU, FUBP3 / Fold change vs veh, FUBP3 / RFU, TP53 / Fold change vs veh, TP53 / RFU, TNKS2 / Fold change vs veh, TNKS2 / RFU, ZFP14 / Fold change vs veh, ZFP14 / RFU, ACTR2 / Fold change vs veh, ACTR2 / RFU, PPP3R1 / Fold change vs veh, PPP3R1 / RFU, PIK3R1 / Fold change vs veh, PIK3R1 / RFU, HNRNPA1 / Fold change vs veh, HNRNPA1 / RFU, RNF170 / Fold change vs veh, RNF170 / RFU, ZNF28 / Fold change vs veh, ZNF28 / RFU, RNGTT / Fold change vs veh, RNGTT / RFU, OGT / Fold change vs veh, OGT / RFU, BRD1 / Fold change vs veh, BRD1 / RFU, MARS / Fold change vs veh, MARS / RFU, ZNF655 / Fold change vs veh, ZNF655 / RFU, FAHD1 / Fold change vs veh, FAHD1 / RFU, BDP1 / Fold change vs veh, BDP1 / RFU, LRRCC1 / Fold change vs veh, LRRCC1 / RFU, ARID1A / Fold change vs veh, ARID1A / RFU, ZNF146 / Fold change vs veh, ZNF146 / RFU, ZNF330 / Fold change vs veh, ZNF330 / RFU, GPN3 / Fold change vs veh, GPN3 / RFU, C9orf123 / Fold change vs veh, C9orf123 / RFU, N4BP2L2 / Fold change vs veh, N4BP2L2 / RFU, ARFIP1 / Fold change vs veh, ARFIP1 / RFU, FAM179B / Fold change vs veh, FAM179B / RFU, BCL10 / Fold change vs veh, BCL10 / RFU, UHRF1BP1L / Fold change vs veh, UHRF1BP1L / RFU, BET1 / Fold change vs veh, BET1 / RFU, CNOT2 / Fold change vs veh, CNOT2 / RFU, ZNF268 / Fold change vs veh, ZNF268 / Fold change vs veh, ZNF507 / RFU, DGCR2 / Fold change vs veh, DGCR2 / RFU, WDSUB1 / Fold change vs veh, WDSUB1 / Fold change vs veh, HSP90B1 /// MIR3652 / RFU, ADSS / Fold change vs veh, ADSS / RFU, GK / Fold change vs veh, GK / RFU, ZNF148 / Fold change vs veh, ZNF148 / RFU, TAF9 / Fold change vs veh, TAF9 / RFU, SLC1A5 / Fold change vs veh, SLC1A5 / RFU, SLMO2 / Fold change vs veh, SLMO2 / RFU, ABCC4 / Fold change vs veh, ABCC4 / RFU, LOC101060439 /// RAP1B / Fold change vs veh, LOC101060439 /// RAP1B / RFU, RFX7 / Fold change vs veh, RFX7 / RFU, GTPBP10 / Fold change vs veh, GTPBP10 / RFU, CNEP1R1 / Fold change vs veh, CNEP1R1 / RFU, BIVM-ERCC5 /// ERCC5 / Fold change vs veh, BIVM-ERCC5 /// ERCC5 / RFU, ILF3 / Fold change vs veh, ILF3 / RFU 11762660_at / Fold change /veh 11762660_at / RFU VCAN (11757783_s_at) / Fold change /veh VCAN (11757783_s_at) / RFU DDX43 (11728927_at) / Fold change /veh DDX43 (11728927_at) / RFU KRT8 (11758188_x_at) / Fold change /veh KRT8 (11758188_x_at) / RFU NKD1 (11759106_at) / Fold change /veh NKD1 (11759106_at) / RFU SRD5A1 (11742802_a_at) / Fold change /veh SRD5A1 (11742802_a_at) / RFU TPSAB1 /// TPSB2 (11721975_s_at) / Fold change /veh TPSAB1 /// TPSB2 (11721975_s_at) / RFU GSTM3 (11746129_a_at) / Fold change /veh GSTM3 (11746129_a_at) / RFU IL23R (11737362_x_at) / Fold change /veh IL23R (11737362_x_at) / RFU TMEM51 (11727254_a_at) / Fold change /veh TMEM51 (11727254_a_at) / RFU PIWIL2 (11732686_x_at) / Fold change /veh PIWIL2 (11732686_x_at) / RFU ORM1 (11744905_x_at) / Fold change /veh ORM1 (11744905_x_at) / RFU CCDC152 (11743942_at) / Fold change /veh CCDC152 (11743942_at) / RFU ECM1 (11717891_a_at) / Fold change /veh ECM1 (11717891_a_at) / RFU IL23R (11748794_a_at) / Fold change /veh IL23R (11748794_a_at) / RFU TNFAIP8L3 (11732012_x_at) / Fold change /veh TNFAIP8L3 (11732012_x_at) / RFU MBOAT4 (11741988_at) / Fold change /veh MBOAT4 (11741988_at) / RFU 11764193_at / Fold change /veh 11764193_at / RFU TMEM53 (11763286_at) / Fold change /veh TMEM53 (11763286_at) / RFU MAGEB2 (11727129_at) / Fold change /veh MAGEB2 (11727129_at) / RFU TMEM200A (11744735_a_at) / Fold change /veh TMEM200A (11744735_a_at) / RFU CCDC152 (11751479_a_at) / Fold change /veh CCDC152 (11751479_a_at) / RFU FAM211A (11726209_a_at) / Fold change /veh FAM211A (11726209_a_at) / RFU RGS16 (11746705_a_at) / Fold change /veh RGS16 (11746705_a_at) / RFU VCAN (11755009_s_at) / Fold change /veh VCAN (11755009_s_at) / RFU RHOB (11743442_s_at) / Fold change /veh RHOB (11743442_s_at) / RFU RGS16 (11720943_a_at) / Fold change /veh RGS16 (11720943_a_at) / RFU RGS16 (11720944_at) / Fold change /veh RGS16 (11720944_at) / RFU, VPS4B / Fold change vs veh, VPS4B / RFU, CREB1 / Fold change vs veh, CREB1 / RFU, DNAJC13 / Fold change vs veh, DNAJC13 / RFU, GNAQ / Fold change vs veh, GNAQ / RFU, CDK5R1 / Fold change vs veh, CDK5R1 / RFU, ZRANB3 / Fold change vs veh, ZRANB3 / RFU, CUL4A / Fold change vs veh, CUL4A / RFU, CCNY / Fold change vs veh, CCNY / RFU, UFL1 / Fold change vs veh, UFL1 / RFU, COG3 / Fold change vs veh, COG3 / RFU, DIAPH2 / Fold change vs veh, DIAPH2 / RFU, SKA2 / Fold change vs veh, SKA2 / RFU, AFF3 / Fold change vs veh, AFF3 / RFU, LMF1 / Fold change vs veh, LMF1 / RFU, IPO11 / Fold change vs veh, IPO11 / RFU, DFFB / Fold change vs veh, DFFB / RFU, FOXP1 / Fold change vs veh, FOXP1 / RFU, CARD8 / Fold change vs veh, CARD8 / RFU, STRN3 / Fold change vs veh, STRN3 / RFU, ADK / Fold change vs veh, ADK / RFU, RASSF2 / Fold change vs veh, RASSF2 / RFU, WIPF1 / Fold change vs veh, WIPF1 / RFU, LARP1B / Fold change vs veh, LARP1B / RFU, RASA1 / Fold change vs veh, RASA1 / RFU, RB1 / Fold change vs veh, RB1 / RFU, PPFIA1 / Fold change vs veh, PPFIA1 / RFU, MAT2A / Fold change vs veh, MAT2A / RFU, CCT5 / Fold change vs veh, CCT5 / RFU, WDR92 / Fold change vs veh, WDR92 / RFU, CUX1 / Fold change vs veh, CUX1 / RFU, TTC7A / Fold change vs veh, TTC7A / RFU, TMEM135 / Fold change vs veh, TMEM135 / RFU, DEPTOR / Fold change vs veh, DEPTOR / RFU, CPM / Fold change vs veh, CPM / RFU, DNAJB6 / Fold change vs veh, DNAJB6 / RFU, CACNA2D3 / Fold change vs veh, CACNA2D3 / RFU, DTX4 / Fold change vs veh, DTX4 / RFU, TFCP2 / Fold change vs veh, TFCP2 / RFU, GMCL1 /// GMCL1P1 / Fold change vs veh, GMCL1 /// GMCL1P1 / RFU, AEBP2 / Fold change vs veh, AEBP2 / RFU, SNHG1 /// SNORD22 /// SNORD25 /// SNORD26 /// SNORD27 /// SNORD28 /// SNORD29 /// SNORD31 / Fold change vs veh, SNHG1 /// SNORD22 /// SNORD25 /// SNORD26 /// SNORD27 /// SNORD28 /// SNORD29 /// SNORD31 / Fold change (Aza/veh), C12orf56 (ProbeSet 11735607_a_at) / Fold change (ACY-1035/veh), C12orf56 (ProbeSet 11735607_a_at) / Fold change (Aza/veh), FGFR1OP (ProbeSet 11751329_s_at) / Fold change (ACY-1035/veh), FGFR1OP (ProbeSet 11751329_s_at) / Fold change (Aza/veh), VPS36 (ProbeSet 11739960_a_at) / Fold change (ACY-1035/veh), VPS36 (ProbeSet 11739960_a_at) / RFU SYPL1 (11715823_x_at) / Fold change /veh SYPL1 (11715823_x_at) / RFU IGFBP7 (11715501_s_at) / Fold change /veh IGFBP7 (11715501_s_at) / RFU REEP3 (11722064_at) / Fold change /veh REEP3 (11722064_at) / RFU IGLL1 (11728026_x_at) / Fold change /veh IGLL1 (11728026_x_at): dose or concentration left out as unconfirmed
Conditions: MV-4-11 cells, 48 hours

**Q.** Which “RFU KRT8 (11758188_x_at)” value does the source give for `Nc1ccc(-c2cccs2)cc1NC(=O)c1ccc2c(c1)cc(C1CC1)n2CCN1CCOCC1` [ACY-1035] here?
**A.** 20.03 RFU
